Test results taken from patent US8084602B2, “Porphyrin derivatives and their use in photodynamic therapy” (Destiny Pharma Limited, priority 2002, dated 2011).
Where two headings read alike, the source gives them in different places.

Columns and labels:
[1] = test system: normal human dermal fibroblasts (NHDF); experiment: Toxicity against human skin cells, MTT-assay; type: cell-based
Description: (§1) Test compounds were screened for toxicity against cultured human skin cells using normal human epidermal keratinocytes (NHEK) and normal human dermal fibroblasts (NHDF), purchased from CellSystems Biotechnologie GmbH, Germany.
(§2) The NHEK and NHDF cells were used between passages 3 and 10. The cells were seeded with 7.5 and/or 15×10^4 cells/well (microtitreplate) and allowed to attach overnight in an incubator (37° C., 5% CO2). […]
(§3) Phototoxicity was tested by standard MTT-assay (Mossman et al., 1983, Immunological Methods 65:55-63). MTT is an indicator of metabolically active cells. Dependent on enzyme activity in mitochondria a colour reaction can be visualised, which can be measured by ELISA reader (540 nm). The cell viability data were normalised, i.e. the OD values of cells after PDT without photosensitisers were adjusted to one. Each experiment was repeated three times.

[2] = test system: normal human epidermal keratinocytes (NHEK); experiment: Toxicity against human skin cells, MTT-assay; type: cell-based
Description: as §1, §2, §3

[3] = test system: bacterial cells compared to human skin cells; experiment: Selectivity for bacteria compared to human skin cells; type: cell-based
Description: (§4) For the further investigation of the exemplary compounds (Table 2), the following protocol was adopted: • (i) Bacteria (S. aureus BAA-44 and E. coli 25922) were grown in brain heart infusion (BHI) broth until they reached the stationary phase of growth. • (ii) The cells were harvested by centrifugation (3000 g for 15 min) with a table centrifuge, washed with 10 mM PBS at pH 7.4 containing 2.7 mM KCl and 0.14 M NaCl and suspended in PBS at an optical density of 0.7 at 650 nm corresponding to 10^8-10^9 cells/ml. • (iii) The bacteria, at the desired cell density (˜10^8 cells/ml) were incubated for 5 min in the dark with various concentrations of the exemplary compounds. • (iv) At the end of the incubation period the cells were washed three times with PBS, suspended in PBS, transferred into a 96-well microtitre plate (200 μl/well) and illuminated for 15 min with the Waldmann light source (15.2 mW/cm^2; 13.7 J/cm^2). The cells were illuminated from the bottom of the plate laying it on the glass cover of the lamp. • (v) After illumination, cell survival was determined by plating serially diluted aliquots of treated and untreated (i.e. no exemplary compound or light present) cells onto brain heart agar (BHA) and counting the number of colonies after 18-24 h incubation at 37° C.
as §1
The NHEK and NHDF cells were used between passages 3 and 10. The cells were seeded with 7.5 and/or 15×10^4 cells/well (microtitreplate) and allowed to attach overnight in an incubator (37° C., 5% CO2). After incubation with different concentrations of the selected photosensitisers, the cells were illuminated for fifteen minutes (Light source 236, Waldmann; 15.2 mW/cm^2, 13.7 J/cm^2) and then incubated for 24 hours in the dark.
as §3

[4] = test system: S. aureus ATCC BAA-44 (a methicillin resistant S. aureus); experiment: Cell survival (colony forming unit) with or without illumination; type: cell-based, Staphylococcus aureus; details: S. aureus
Description: (§5) The toxic effects of exemplary compounds of the invention against two bacterial strains, the Gram negative bacterium Escherichia coli (strain ATCC 25922) and the Gram positive bacterium Staphylococcus aureus (methicillin-resistant strain ATTC BAA-44), were evaluated by measuring the extent of growth inhibition (bacteriostatic effect) and growth […] (cytocidal effect) in the dark and upon light exposure. Initial compound screening was undertaken using white light [390-740 nm] (150 mW/cm^2) for various timepoints of a concentration of 3 μM (see Table 1). Further experiments were undertaken on those compounds identified from this initial screen using a light source emitting light at a wavelength between 417-420 nm at 15.2 mW/cm^2, 13.68 J/cm^2 (Waldmann Eclairage SA, France) (see Table 20.
as §4
(§6) the above colony forming unit (CFU) protocol was also used to investigate the photodynamic activity of very low concentrations of the compounds of the invention.

[5] = test system: Escherichia coli (strain ATCC 25922); experiment: Initial screening: growth inhibition after white light illumination; type: cell-based; details: Escherichia coli, 5 min incubation, read-out: Growth inhibition (%)
Description: as §5
(§7) The following protocol was used for the initial screening of the exemplary compounds (Table 1) (see Reddi et al., 2002, Photochem. Photobiol. 75(5):462-470): • (i) E. coli and S. aureus cells were grown overnight on brain heart infusion agar, resuspended in brain heart infusion broth, harvested by centrifugation (3000 g for 15 minutes) and washed once with phosphate buffered saline (PBS) at pH 7.4 consisting 2.7 mM KCl and 0.14 M NaCl. • (ii) The cells were then resuspended in PBS to an optical density at 650 nm of 0.7, which corresponds to a density of 10^8 to 10^9 cells/ml. • (iii) Next, the cells were incubated in PBS in the dark for 5 minutes with 3.0 μM of the compound to be tested. • (iv) After dark incubation, cells were illuminated with white light (wavelength: 390 to 740 nm) (150 mW/cm^2) for up to 30 minutes. During illumination, the cells were kept at 37° C. and magnetically stirred. • (v) Finally, treated and untreated (control) cells were diluted in brain heart infusion broth and maintained at […] while the absorbance of the suspension at 650 nm was monitored at predetermined time points for determining growth curves.
(§8) The percent of growth inhibition in the treated cells was calculated by the following equation: [1−(Ax−A0)/(Ac−A0)]×100 where Ax Ac are the absorbances measured after 3 hours incubation, for the treated and control cell suspensions, respectively, and A0 represents the initial absorbance.

[6] = test system: Staphylococcus aureus (methicillin-resistant strain ATTC BAA-44); experiment: as above; type: cell-based; details: Staphylococcus aureus, 5 min incubation, read-out: Growth inhibition (%)
Description: as §5, §7, §8

[7] = Chemical stability, qualitative stress tests (HPLC, LC-MS); type: physicochemical; details: solid, aqueous solution and PBS; 7 days each at 50° C., 70° C., 90° C.
Description: The following HPLC methodology was established for the analysis of the exemplary compounds of the invention.
The method involves detection by UV at a wavelength of 420 nm, which is very specific for these compounds. In order to monitor impurities not related to the porphyrin structure (and therefore not absorbing at 420 nm) UV spectra of the whole chromatograms were also recorded between 200 nm and 700 nm by DAD (diode array detector) in certain experiments.
Qualitative stress tests were undertaken on the exemplary compounds of the invention. Analysis was undertaken by HPLC & LC-MS. The compounds were stress tested in solid form, in an aqueous solution and a solution made up in phosphate-buffered saline buffer. The samples were initially incubated for 7 days at 50° C. and a sample removed for testing. The samples were then incubated for a further 7 days at 70° C., samples removed as before and the samples incubated further for 7 days at 90° C. HPLC analysis of freshly prepared solutions was undertaken and compared to the samples after 7, 14 and 21 days incubation. A visual comparison of the chromatograms was then undertaken and the content of the main products and by-products as area percentage values determined (see FIG. 11).

[8] = test system: E. coli ATCC 25922; experiment: Cell survival (colony forming unit) with or without illumination; type: cell-based, Escherichia coli; details: E. coli
Description: as §5, §4, §6

[9] = dark toxicity, 1 μM, no illumination
[10] = dark toxicity, 10 μM, no illumination
[11] = photodynamic activity (light toxicity), 0.01 μM, illumination 15 min
[12] = photodynamic activity (light toxicity), 0.1 μM, illumination 15 min
[13] = photodynamic activity (light toxicity), 1 μM, illumination 15 min
[14] = dark toxicity (no illumination), 10 μM
[15] = photodynamic activity, 0.1 μM, illumination 15 min
[16] = photodynamic activity, 1 μM, illumination 15 min
[17] = dark toxicity (no illumination), 1 μM

For `C[N+](C)(C)CCCOc1ccc(-c2c3nc(c(-c4ccc(OCCC[N+](C)(C)C)cc4)c4ccc([nH]4)c(-c4ccc(OCCC[N+](C)(C)C)cc4)c4nc(c(-c5ccc(OCCC[N+](C)(C)C)cc5)c5ccc2[nH]5)C=C4)C=C3)cc1.[Cl-].[Cl-].[Cl-].[Cl-]` [Compound 1, 5,10,15,20-tetrakis-[4-(3-Trimethylammonio-propyloxy)-phenyl]-porphyrin tetrachloride, reference compound], the Survival [1, 9] was 100%, the Survival [1, 10] was 92% and the Survival [1, 11] was 100%. It also gave a Survival [1, 12] of 39%, a Survival [1, 13] of 2% and a Survival [2, 9] of 100%. The Survival [2, 10] was 83%, the Survival [2, 11] was 94% and the Survival [2, 12] was 52%. For the same compound, the Survival [2, 13] was 0.4%, the “toxicity to bacterial cells compared to human cells” value [3] was “equal toxicity to bacterial and human cells” and the Log reduction [4, 14] was <1 (<10^−1). For the same compound, the Log reduction [4, 15] was <1 (<10^−1) and the Log reduction [4, 16] was >6 (>10^−6).

With `CCCCCCCCCCCc1c2nc(cc3ccc([nH]3)c(-c3cc(OCCC[N+](C)(C)C)cc(OCCC[N+](C)(C)C)c3)c3nc(cc4ccc1[nH]4)C=C3)C=C2.[Cl-].[Cl-]` [Compound 6, 5-[3,5-bis-(3-Trimethylammonio-propyloxy)-phenyl]-15-undecyl-porphyrin dichloride] the inhibition at 3 µM ([5]; ATCC25922, 5 min, E. coli, illumination time 5 min) was 30%, the inhibition at 3 µM ([5]; ATCC25922, E. coli, illumination time 0 min) was 9% and the inhibition at 3 µM ([5]; ATCC25922, E. coli, illumination time 1 min) was 17%. For the same compound, the inhibition at 3 µM ([5]; ATCC25922, E. coli, illumination time 10 min) was 54%, the inhibition at 3 µM ([5]; ATCC25922, E. coli, illumination time 15 min) was 69% and the inhibition at 3 µM ([5]; ATCC25922, E. coli, illumination time 30 min) was 93%. The inhibition at 3 µM ([6]; BAA44, 5 min, S. aureus, illumination time 5 min) was 100%, the inhibition at 3 µM ([6]; BAA44, S. aureus, illumination time 0 min) was 29% and the inhibition at 3 µM ([6]; BAA44, S. aureus, illumination time 1 min) was 100%. The inhibition at 3 µM ([6]; BAA44, S. aureus, illumination time 10 min) was 100%, the inhibition at 3 µM ([6]; BAA44, S. aureus, illumination time 15 min) was 100% and the inhibition at 3 µM ([6]; BAA44, S. aureus, illumination time 30 min) was 100%. For the same compound, the Log reduction [4, 17] was 1 (<10^−1), the Log reduction [4, 14] was 2 (10^−2) and the Log reduction [4, 15] was 3 (10^−3). The Log reduction [4, 16] was 6 (10^−6).

For `C[N+](C)(C)CCCOc1cccc(-c2c3nc(cc4ccc([nH]4)c(-c4cccc(OCCC[N+](C)(C)C)c4)c4nc(cc5ccc2[nH]5)C=C4)C=C3)c1.[Cl-].[Cl-]` [Compound 12, 5,15-bis-[3-(3-trimethylammonio-propyloxy)-phenyl]-porphyrin dichloride], the Survival [1, 9] was 100%, the Survival [1, 10] was 95% and the Survival [1, 11] was 100%. The Survival [1, 12] was 85%, the Survival [1, 13] was 1.0% and the Survival [2, 9] was 100%. For the same compound, the Survival [2, 10] was 92%, the Survival [2, 11] was 97% and the Survival [2, 12] was 75%. For the same compound, the Survival [2, 13] was 0.5%, the “toxicity to bacterial cells compared to human skin cells” value ([3]; at a dose of 0.1 μM) was “preferentially toxic to bacterial cells compared to human skin cells” and the “chemical stability under stress test” value [7] was “good stability”. The Log reduction [8, 17] was <1 (<10^−1), the Log reduction ([8]; photodynamic activity, 0.5 μM, illumination 15 min) was <1 (<10^−1) and the Log reduction [8, 16] was >6 (>10^−6). For the same compound, the Log reduction [4, 17] was <1 (<10^−1), the Log reduction ([4]; photodynamic activity, 0.005 μM, illumination 15 min) was <2 (<10^−2) and the Log reduction [4, 15] was >3 (>10^−3). The Log reduction [4, 16] was >6 (>10^−6).
